In ChEMBL document CHEMBL5724914, “Linking interpersonal differences in gut microbiota composition and drug biotransformation activity” (2024):

Key:
[1] = (§1) The drug is tested on WLS-310 corresponding to human gut metagenome with ENA study accession number: PRJEB37062 and ENA sample accession number: ERS12561785 for biotransformation under anaerobic condition. The drug concentrations were measured over 9 timepoints collected between 0 and 24 hours of incubation by liquid-chromatography-coupled mass spectrometry (LC–MS); details: 2 µM
[2] = as §1, with “Z-018” for “WLS-310”, “pig” for “human”, “ERS12561817” for “ERS12561785”; details: 2 µM
[3] = human gut metagenome, 24 h, 2 µM
[4] = as §1, with “WLS-370” for “WLS-310”, “ERS12561793” for “ERS12561785”; details: 2 µM
[5] = as §1, with “Z-009” for “WLS-310”, “pig” for “human”, “ERS12561809” for “ERS12561785”; details: 2 µM
[6] = human gut metagenome, 24 h, 2 µM; remark: listed apart in the source
[7] = as §1, with “Z-010” for “WLS-310”, “to” for “to human gut”, “ERS12561810” for “ERS12561785”; details: 2 µM
[8] = as §1, with “WLS-010” for “WLS-310”, “ERS12561743” for “ERS12561785”; details: 2 µM
[9] = as §1, with “Z-027” for “WLS-310”, “to” for “to human gut”, “ERS12561826” for “ERS12561785”; details: 2 µM
[10] = human gut metagenome, 24 h, 2 µM; remark: listed apart in the source
[11] = as §1, with “WLS-052” for “WLS-310”, “ERS12561747” for “ERS12561785”; details: 2 µM
[12] = as §1, with “Z-017” for “WLS-310”, “mouse” for “human”, “ERS12561816” for “ERS12561785”; details: 2 µM
[13] = human gut metagenome, 24 h, 2 µM; remark: listed apart in the source
[14] = as §1, with “Z-019” for “WLS-310”, “rat” for “human”, “ERS12561818” for “ERS12561785”; details: 2 µM
[15] = human gut metagenome, 24 h, 2 µM; remark: listed apart in the source
[16] = as §1, with “Z-003” for “WLS-310”, “pig” for “human”, “ERS12561803” for “ERS12561785”; details: 2 µM
[17] = as §1, with “Z-012” for “WLS-310”, “to” for “to human gut”, “ERS12561812” for “ERS12561785”; details: 2 µM
[18] = human gut metagenome, 24 h, 2 µM; remark: listed apart in the source
[19] = as §1, with “WLS-240” for “WLS-310”, “ERS12561773” for “ERS12561785”; details: 2 µM
[20] = as §1, with “Z-024” for “WLS-310”, “pig” for “human”, “ERS12561823” for “ERS12561785”; details: 2 µM
Note: call rule not given here.

| SMILES | Bacterial Biotransformation [1] | Bacterial Biotransformation [2] | Bacterial Biotransformation [3] | Bacterial Biotransformation [4] | Bacterial Biotransformation [5] | Bacterial Biotransformation [6] | Bacterial Biotransformation [7] | Bacterial Biotransformation [8] | Bacterial Biotransformation [9] | Bacterial Biotransformation [10] | Bacterial Biotransformation [11] | Bacterial Biotransformation [12] | Bacterial Biotransformation [13] | Bacterial Biotransformation [14] | Bacterial Biotransformation [15] | Bacterial Biotransformation [16] | Bacterial Biotransformation [17] | Bacterial Biotransformation [18] | Bacterial Biotransformation [19] | Bacterial Biotransformation [20] |
| --- | --- | --- | --- | --- | --- | --- | --- | --- | --- | --- | --- | --- | --- | --- | --- | --- | --- | --- | --- | --- |
| CC(=O)OCC(=O)[C@@]1(O)[C@@H](C)C[C@H]2[C@@H]3CCC4=CC(=O)C=C[C@]4(C)[C@@]3(F)[C@@H](O)C[C@@]21C [BETAMETHASONE ACETATE] | Compound metabolized | Compound NOT metabolized | Compound metabolized | Compound metabolized | Compound metabolized | Compound metabolized | Compound metabolized | Compound metabolized | Compound NOT metabolized | Compound metabolized | Compound metabolized | Compound metabolized | Compound metabolized | Compound NOT metabolized | Compound metabolized | Compound metabolized | Compound NOT metabolized | Compound metabolized | Compound metabolized | Compound metabolized |
| CC(C)NCC(O)COc1ccc(CCOCC2CC2)cc1 (stereo not given) [BETAXOLOL] | Compound metabolized | Compound NOT metabolized | Compound metabolized | Compound NOT metabolized | Compound NOT metabolized | Compound metabolized | Compound NOT metabolized | Compound NOT metabolized | Compound NOT metabolized | Compound NOT metabolized | Compound NOT metabolized | Compound NOT metabolized | Compound NOT metabolized | Compound NOT metabolized | Compound NOT metabolized | Compound NOT metabolized | Compound NOT metabolized | Compound NOT metabolized | Compound metabolized | Compound metabolized |
| CC(C)(Oc1ccc(CCNC(=O)c2ccc(Cl)cc2)cc1)C(=O)O [BEZAFIBRATE] | Compound metabolized | Compound NOT metabolized | Compound metabolized | Compound metabolized | Compound metabolized | Compound metabolized | Compound metabolized | Compound metabolized | Compound NOT metabolized | Compound metabolized | Compound metabolized | Compound NOT metabolized | Compound metabolized | Compound NOT metabolized | Compound metabolized | Compound metabolized | Compound NOT metabolized | Compound metabolized | Compound metabolized | Compound metabolized |
| CC(O)(CS(=O)(=O)c1ccc(F)cc1)C(=O)Nc1ccc(C#N)c(C(F)(F)F)c1 (stereo not given) [BICALUTAMIDE] | Compound NOT metabolized | Compound NOT metabolized | Compound NOT metabolized | Compound NOT metabolized | Compound NOT metabolized | Compound NOT metabolized | Compound NOT metabolized | Compound NOT metabolized | Compound NOT metabolized | Compound NOT metabolized | Compound NOT metabolized | Compound NOT metabolized | Compound NOT metabolized | Compound NOT metabolized | Compound NOT metabolized | Compound NOT metabolized | Compound NOT metabolized | Compound NOT metabolized | Compound NOT metabolized | Compound NOT metabolized |
| CCCC1O[C@@H]2C[C@H]3[C@@H]4CCC5=CC(=O)C=C[C@]5(C)[C@H]4[C@@H](O)C[C@]3(C)[C@]2(C(=O)CO)O1 (stereo not given in full) [BUDESONIDE] | Compound metabolized | Compound metabolized | Compound metabolized | Compound metabolized | Compound metabolized | Compound metabolized | Compound metabolized | Compound metabolized | Compound NOT metabolized | Compound metabolized | Compound metabolized | Compound metabolized | Compound metabolized | Compound NOT metabolized | Compound metabolized | Compound metabolized | Compound metabolized | Compound metabolized | Compound metabolized | Compound metabolized |
| CCN(CC)CCOCCOC(=O)C1(c2ccccc2)CCCC1.O=C(O)CC(O)(CC(=O)O)C(=O)O [CARBETAPENTANE CITRATE] | Compound metabolized | Compound metabolized | Compound metabolized | Compound metabolized | Compound metabolized | Compound metabolized | Compound metabolized | Compound metabolized | Compound NOT metabolized | Compound metabolized | Compound metabolized | Compound NOT metabolized | Compound NOT metabolized | Compound NOT metabolized | Compound metabolized | Compound metabolized | Compound NOT metabolized | Compound metabolized | Compound metabolized | Compound metabolized |
| O=C(O)COCCN1CCN(C(c2ccccc2)c2ccc(Cl)cc2)CC1 (stereo not given) [CETIRIZINE] | Compound metabolized | Compound NOT metabolized | Compound metabolized | Compound metabolized | Compound metabolized | Compound metabolized | Compound metabolized | Compound metabolized | Compound NOT metabolized | Compound metabolized | Compound metabolized | Compound NOT metabolized | Compound metabolized | Compound NOT metabolized | Compound metabolized | Compound metabolized | Compound metabolized | Compound metabolized | Compound metabolized | Compound metabolized |
| CN/C(=N/CCSCc1nc[nH]c1C)NC#N [CIMETIDINE] | Compound metabolized | Compound metabolized | Compound metabolized | Compound NOT metabolized | Compound NOT metabolized | Compound metabolized | Compound metabolized | Compound metabolized | Compound NOT metabolized | Compound NOT metabolized | Compound NOT metabolized | Compound NOT metabolized | Compound metabolized | Compound NOT metabolized | Compound NOT metabolized | Compound NOT metabolized | Compound metabolized | Compound metabolized | Compound metabolized | Compound NOT metabolized |
